System: axillary (armpit) hair growth
Assay: Axillary hair growth reduction in human subjects (hair length by image analysis)
Format: in vivo
Conditions: for Hair Length (μm): Example 1 including 3% DFMO once a day to armpit, six human subjects; for % Reduction (hair length): Example 1 including 3% DFMO vs Right Guard roll-on vehicle
Method: Example 1, including 3% DFMO, was tested in six human subjects to determine the effectiveness of the composition for reducing hair growth. The composition was applied once a day to one armpit in a subject; Right Guard® roll-on product was applied once daily to the other armpit. The hair length measurements were made at select time intervals using a semi automated image analysis system. For these measurements, the subjects shaved both armpits and then digital images of the treatment areas (DFMO and Vehicle) were taken at 24, 48, and 72 hr later. The number of hairs measured per site ranged from 58 to 87.
The results after six weeks and 16 weeks are shown below.

[1] = after 6 weeks, 24 Hrs after shaving
[2] = after 6 weeks, 48 Hrs after shaving
[3] = after 6 weeks, 72 Hrs after shaving
[4] = after 16 weeks, 24 Hrs after shaving
[5] = after 16 weeks, 48 Hrs after shaving
[6] = after 16 weeks, 72 Hrs after shaving

**Q.** What does the source list for NCCCC(N)(C(=O)O)C(F)F (stereo not drawn) [DFMO, α-Difluoromethylomithine]?
**A.** Hair Length (μm) [1]: 274 ± 15 μm; % Reduction (hair length) [1]: 48 ± 3%; Hair Length (μm) [2]: 509 ± 26 μm; % Reduction (hair length) [2]: 49 ± 3%; Hair Length (μm) [3]: 867 ± 34 μm; % Reduction (hair length) [3]: 46 ± 2%; Hair Length (μm) [4]: 170 ± 16 μm; % Reduction (hair length) [4]: 66 ± 3%; Hair Length (μm) [5]: 273 ± 23 μm; % Reduction (hair length) [5]: 73 ± 3%; Hair Length (μm) [6]: 326 ± 24 μm; % Reduction (hair length) [6]: 75 ± 2%

Source: patent US20070059264A1, “Reduction of hair growth” (priority 2005, published 2007)
